Experimental data reported in patent US20230127008A1, “STAT3-TARGETED BASE EDITOR THERAPEUTICS FOR THE TREATMENT OF MELANOMA AND OTHER CANCERS” (The Broad Institute, Inc., priority 2020, published 2023).

Columns and labels:
DNA [1] = settings: SpCas9 mutation relative to SEQ ID NO: 74; UniProtKB-Q99ZW2 entry; cited from earlier work
STAT3 [2] = assay: STAT3 reporter system (STAT3 signal); format: cell-based
[3] = test system: STAT3-dependent breast cancer cells; settings: 10 μM; cited from earlier work
STAT3 [4] = assay: STAT3 reporter signal after STAT3 inhibitor or base editor treatment (FIGS. 3, 4, 5); format: cell-based
STAT3 SH2 domain = STAT3 SH2 domain (Homo sapiens, UniProt P40763); settings: 37° C.; cited from earlier work
DNA [5] = assay: A to G editing on DNA by ecTadA mutant-nCas9 constructs (mammalian construct); format: cell-based

Sequence of STAT3 SH2 domain (P40763 whole entry, the tested form may be a part): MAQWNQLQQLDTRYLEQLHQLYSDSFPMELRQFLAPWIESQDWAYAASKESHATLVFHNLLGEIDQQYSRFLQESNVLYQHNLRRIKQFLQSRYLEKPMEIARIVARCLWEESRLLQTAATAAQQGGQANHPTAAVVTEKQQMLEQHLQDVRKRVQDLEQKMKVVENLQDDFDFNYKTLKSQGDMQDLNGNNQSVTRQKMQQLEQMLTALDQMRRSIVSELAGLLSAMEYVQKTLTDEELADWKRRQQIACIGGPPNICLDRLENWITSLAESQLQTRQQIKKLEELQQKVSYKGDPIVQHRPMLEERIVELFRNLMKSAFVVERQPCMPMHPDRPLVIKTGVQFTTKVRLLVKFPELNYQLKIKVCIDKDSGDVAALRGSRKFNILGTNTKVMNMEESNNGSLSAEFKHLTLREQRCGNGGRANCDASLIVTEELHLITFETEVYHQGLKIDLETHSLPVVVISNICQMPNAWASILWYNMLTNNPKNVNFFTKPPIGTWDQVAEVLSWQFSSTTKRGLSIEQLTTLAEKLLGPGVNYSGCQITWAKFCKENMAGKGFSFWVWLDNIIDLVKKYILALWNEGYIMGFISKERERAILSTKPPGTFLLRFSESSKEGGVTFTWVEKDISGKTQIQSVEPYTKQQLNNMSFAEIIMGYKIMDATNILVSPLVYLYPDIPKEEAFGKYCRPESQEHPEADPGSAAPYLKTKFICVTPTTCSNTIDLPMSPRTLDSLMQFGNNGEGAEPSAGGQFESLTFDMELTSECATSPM

## 1099-1368 deletion: SpCas9 mutation relative to canonical SpCas9, SEQ ID NO: 74
DNA [1]
  Function/Characteristic (as reported): No nuclease activity

## O=[N+]([O-])c1ccc2c(c1)S(=O)(=O)C=C2 [Stattic, stattic]
STAT3 [2]; STAT3 inhibitor at different concentrations, FIG. 3
  inhibition of STAT3: inhibition of STAT3
STAT3 [2]; extension of the graph of FIG. 3, FIG. 5
  STAT3 signal over time: does not lead to a durable effect
[3]
  apoptosis: induce apoptosis
STAT3 [4]
  STAT3 signal over time: produces an effect that does not last over time
STAT3 [4]; different concentrations
  STAT3-driven signals: reduce STAT3-driven signals
STAT3 SH2 domain
  IC50: 5.1 µM

## H840A: SpCas9 mutation relative to canonical SpCas9, SEQ ID NO: 74
DNA [1]
  Function/Characteristic (as reported): Nickase mutant which cleaves the non-

## ecTadA(D108G)-XTEN-nCas9-NLS: ABE fusion protein, SEQ ID NO: 155
DNA [5]
  activity on DNA, A to G editing: ecTadA(D108G)-XTEN-nCas9-NLS: (mammalian construct, active on DNA, A to G

## ecTadA(D108N)-XTEN-nCas9-NLS: ABE fusion protein, SEQ ID NO: 154
DNA [5]
  activity on DNA, A to G editing: ecTadA(D108N)-XTEN-nCas9-NLS: (mammalian construct, active on DNA, A to G

## ecTadA(D108V)-XTEN-nCas9-NLS: ABE fusion protein, SEQ ID NO: 156
DNA [5]
  activity on DNA, A to G editing: ecTadA(D108V)-XTEN-nCas9-NLS: (mammalian construct, active on DNA, A to G
